Results: US20250092033A1, “HETEROAROMATIC NITROGEN-OXIDE COMPOUND, PREPARATION METHOD THEREFOR, AND USE THEREOF” (BEIJING AVISTONE BIOTECHNOLOGY CO., LTD., priority 2021, published 2025)

Experiments:
Assay type in all cases: biochemical
Details in all cases: 10 concentrations, 3-fold dilution
[1] = target: T1, wild type (WT) MET kinase (Homo sapiens, UniProt P08581); assay: Kinase inhibition experiment (HTRF KinEASE-TK kit), wild-type MET
T1 construct: purchased Carna 08-151
Description: (§1) The activity of the compounds was determined by detecting the residual amount of ATP after reacting with wild-type or mutant MET protein kinase by using an HTRF KinEASE-TK kit. […]
(§2) The compounds were determined on the selected kinase, the solvent control was set and a total of 10 concentrations were detected, diluted 3-fold, 2 replicates per concentration.
(§3) 1 volume of 5× kinase reaction buffer and 4 volumes of water; 5 mM MgCl2; 1 mM DTT; 1 mM MnCl2; or 2500 nm SEB.
(§4) 1) 10 nl or 4 μlof the diluted compound was transferred to each well of the reaction plate (784075 or 264706, Greiner or Thermo) with a pipette, the reaction plate was sealed with a sealing plate, and centrifuged at 1000 for 1 minute.
(§5) 2) 2× MET was prepared from 1× enzyme reaction buffer, 5 μl or 2 μl kinase was added to each well of the reaction plate, the reaction plate was sealed with a sealing plate, centrifuged at 1000 g for 30 seconds and incubated at room temperature for 10 min.
(§6) 3) a mixed solution of 2× TK-substrate-biotin and ATP were prepared from 1× enzyme reaction buffer solution, 5 μl or 2 μl TK-substrate-biotin/ATP of the mixed solution was added into a reaction plate, the reaction plate was sealed with a sealing plate, centrifuged at 1000 g for 30 seconds and reacted for 50 minutes or 10 minutes at room temperature.
(§7) 4) a mixed solution of 4× or 2× Sa-XL 665 and TK-antibody-Cryptate were prepared from HTRF detection buffer, 5 or 10 μl of the mixed solution of Sa-XL 665 and TK-antibody-Cryptate was added into each well, centrifuged at 1000 g for 30 seconds, and reacted at room temperature for 1 h.
(§8) 5) the fluorescence signals at 615 nm (cryptate) and 665 nm (XL665) were read with Envision 2104 or TECAN.
(§9) The data was analyzed using GraphPad Prism 6.0 or 7 software, and the dose-response curve was fitted with nonlinear S-curve regression, and the IC50 value was calculated therefrom.
(§10) Enzyme Inhibition Percent (%)=100-(Signalmpd-SignalAve_PC)/(SignalAve_VC-SignalAve_PC)×100

MET F1200I = target: T2, MET F1200I (Homo sapiens, UniProt P08581, F1200I); assay: Kinase inhibition experiment (HTRF KinEASE-TK kit), mutant MET F1200I
T2 construct: purchased Signalchem M52-12GG/Y767-2
T2 sequence (P08581 25-1390 F1200I): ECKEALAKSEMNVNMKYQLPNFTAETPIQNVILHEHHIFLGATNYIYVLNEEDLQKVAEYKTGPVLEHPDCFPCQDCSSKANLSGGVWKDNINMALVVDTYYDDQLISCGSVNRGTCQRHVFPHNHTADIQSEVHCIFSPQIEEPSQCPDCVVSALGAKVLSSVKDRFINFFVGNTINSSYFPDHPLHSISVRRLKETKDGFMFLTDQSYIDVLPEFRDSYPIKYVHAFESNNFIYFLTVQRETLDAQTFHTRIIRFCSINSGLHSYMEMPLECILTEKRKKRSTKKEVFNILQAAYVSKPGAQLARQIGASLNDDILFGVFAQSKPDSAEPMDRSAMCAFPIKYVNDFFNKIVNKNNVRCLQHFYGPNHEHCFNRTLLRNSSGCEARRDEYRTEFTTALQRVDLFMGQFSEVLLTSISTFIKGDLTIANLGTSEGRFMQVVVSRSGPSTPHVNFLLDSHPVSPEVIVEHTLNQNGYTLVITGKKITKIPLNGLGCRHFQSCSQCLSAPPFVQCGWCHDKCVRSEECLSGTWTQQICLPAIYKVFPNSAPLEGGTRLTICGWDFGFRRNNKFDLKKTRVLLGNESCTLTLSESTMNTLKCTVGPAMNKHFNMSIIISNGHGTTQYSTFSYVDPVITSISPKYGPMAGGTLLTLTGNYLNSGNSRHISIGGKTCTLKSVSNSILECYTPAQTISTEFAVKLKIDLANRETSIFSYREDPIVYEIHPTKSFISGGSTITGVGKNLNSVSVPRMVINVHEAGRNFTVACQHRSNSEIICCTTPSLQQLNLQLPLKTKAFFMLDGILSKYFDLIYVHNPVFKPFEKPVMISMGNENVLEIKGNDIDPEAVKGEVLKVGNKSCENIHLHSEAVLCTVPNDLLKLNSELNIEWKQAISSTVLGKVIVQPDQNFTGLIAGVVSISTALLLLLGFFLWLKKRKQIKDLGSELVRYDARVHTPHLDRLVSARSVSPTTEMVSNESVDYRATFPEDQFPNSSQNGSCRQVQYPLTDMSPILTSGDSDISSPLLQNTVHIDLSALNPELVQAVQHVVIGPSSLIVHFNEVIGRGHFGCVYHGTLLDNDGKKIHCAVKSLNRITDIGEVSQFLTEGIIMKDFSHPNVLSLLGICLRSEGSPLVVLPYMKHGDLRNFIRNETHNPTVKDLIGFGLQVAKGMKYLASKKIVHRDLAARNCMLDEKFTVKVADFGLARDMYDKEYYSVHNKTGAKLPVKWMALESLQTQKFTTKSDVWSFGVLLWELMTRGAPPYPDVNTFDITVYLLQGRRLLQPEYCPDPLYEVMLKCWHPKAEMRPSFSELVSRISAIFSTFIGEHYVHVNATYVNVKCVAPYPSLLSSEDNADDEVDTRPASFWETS
Description: as §1, §2, §3, §4, §5, §6, §7, §8, §9, §10

MET D1228N = target: T3, MET D1228N (Homo sapiens, UniProt P08581, D1228N); assay: Kinase inhibition experiment (HTRF KinEASE-TK kit), mutant MET D1228N
T3 construct: purchased Signalchem M52-12IG
T3 sequence (P08581 25-1390 D1228N): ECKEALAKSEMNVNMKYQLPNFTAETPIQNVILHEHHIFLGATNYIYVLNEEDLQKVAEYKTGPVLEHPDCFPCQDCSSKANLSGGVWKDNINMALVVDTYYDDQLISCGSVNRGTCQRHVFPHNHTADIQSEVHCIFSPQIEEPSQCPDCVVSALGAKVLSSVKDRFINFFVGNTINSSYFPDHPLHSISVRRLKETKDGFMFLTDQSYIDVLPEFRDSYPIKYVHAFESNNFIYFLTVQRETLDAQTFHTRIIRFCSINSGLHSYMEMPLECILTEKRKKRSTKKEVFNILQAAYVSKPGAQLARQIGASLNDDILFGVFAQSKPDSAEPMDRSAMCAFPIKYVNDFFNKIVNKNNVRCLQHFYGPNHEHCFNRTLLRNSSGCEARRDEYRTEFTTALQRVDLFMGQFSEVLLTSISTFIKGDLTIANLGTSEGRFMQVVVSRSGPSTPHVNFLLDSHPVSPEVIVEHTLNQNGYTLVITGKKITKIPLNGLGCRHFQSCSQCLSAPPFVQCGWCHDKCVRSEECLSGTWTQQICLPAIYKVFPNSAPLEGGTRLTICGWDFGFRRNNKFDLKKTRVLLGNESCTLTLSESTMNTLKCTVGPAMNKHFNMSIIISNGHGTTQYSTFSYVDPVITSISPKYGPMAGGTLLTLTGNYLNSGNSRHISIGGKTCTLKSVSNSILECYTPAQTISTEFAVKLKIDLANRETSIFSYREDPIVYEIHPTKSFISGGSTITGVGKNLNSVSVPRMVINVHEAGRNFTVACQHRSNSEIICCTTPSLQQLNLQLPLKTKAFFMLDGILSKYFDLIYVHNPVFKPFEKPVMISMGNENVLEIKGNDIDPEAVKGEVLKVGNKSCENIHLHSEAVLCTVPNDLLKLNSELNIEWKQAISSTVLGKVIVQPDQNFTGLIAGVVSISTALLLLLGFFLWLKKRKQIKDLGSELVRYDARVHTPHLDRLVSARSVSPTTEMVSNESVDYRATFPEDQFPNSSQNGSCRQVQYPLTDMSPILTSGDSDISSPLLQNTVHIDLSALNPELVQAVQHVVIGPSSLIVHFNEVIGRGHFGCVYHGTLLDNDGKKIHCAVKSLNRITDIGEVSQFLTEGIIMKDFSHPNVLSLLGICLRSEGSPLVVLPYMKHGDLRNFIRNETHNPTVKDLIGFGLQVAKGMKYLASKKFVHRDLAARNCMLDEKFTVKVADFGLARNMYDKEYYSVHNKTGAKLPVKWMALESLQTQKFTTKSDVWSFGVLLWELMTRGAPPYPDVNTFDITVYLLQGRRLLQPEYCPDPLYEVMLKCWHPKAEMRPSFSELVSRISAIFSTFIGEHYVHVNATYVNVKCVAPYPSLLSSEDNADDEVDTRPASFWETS
Description: as §1, §2, §3, §4, §5, §6, §7, §8, §9, §10

T1 sequence (P08581 25-1390): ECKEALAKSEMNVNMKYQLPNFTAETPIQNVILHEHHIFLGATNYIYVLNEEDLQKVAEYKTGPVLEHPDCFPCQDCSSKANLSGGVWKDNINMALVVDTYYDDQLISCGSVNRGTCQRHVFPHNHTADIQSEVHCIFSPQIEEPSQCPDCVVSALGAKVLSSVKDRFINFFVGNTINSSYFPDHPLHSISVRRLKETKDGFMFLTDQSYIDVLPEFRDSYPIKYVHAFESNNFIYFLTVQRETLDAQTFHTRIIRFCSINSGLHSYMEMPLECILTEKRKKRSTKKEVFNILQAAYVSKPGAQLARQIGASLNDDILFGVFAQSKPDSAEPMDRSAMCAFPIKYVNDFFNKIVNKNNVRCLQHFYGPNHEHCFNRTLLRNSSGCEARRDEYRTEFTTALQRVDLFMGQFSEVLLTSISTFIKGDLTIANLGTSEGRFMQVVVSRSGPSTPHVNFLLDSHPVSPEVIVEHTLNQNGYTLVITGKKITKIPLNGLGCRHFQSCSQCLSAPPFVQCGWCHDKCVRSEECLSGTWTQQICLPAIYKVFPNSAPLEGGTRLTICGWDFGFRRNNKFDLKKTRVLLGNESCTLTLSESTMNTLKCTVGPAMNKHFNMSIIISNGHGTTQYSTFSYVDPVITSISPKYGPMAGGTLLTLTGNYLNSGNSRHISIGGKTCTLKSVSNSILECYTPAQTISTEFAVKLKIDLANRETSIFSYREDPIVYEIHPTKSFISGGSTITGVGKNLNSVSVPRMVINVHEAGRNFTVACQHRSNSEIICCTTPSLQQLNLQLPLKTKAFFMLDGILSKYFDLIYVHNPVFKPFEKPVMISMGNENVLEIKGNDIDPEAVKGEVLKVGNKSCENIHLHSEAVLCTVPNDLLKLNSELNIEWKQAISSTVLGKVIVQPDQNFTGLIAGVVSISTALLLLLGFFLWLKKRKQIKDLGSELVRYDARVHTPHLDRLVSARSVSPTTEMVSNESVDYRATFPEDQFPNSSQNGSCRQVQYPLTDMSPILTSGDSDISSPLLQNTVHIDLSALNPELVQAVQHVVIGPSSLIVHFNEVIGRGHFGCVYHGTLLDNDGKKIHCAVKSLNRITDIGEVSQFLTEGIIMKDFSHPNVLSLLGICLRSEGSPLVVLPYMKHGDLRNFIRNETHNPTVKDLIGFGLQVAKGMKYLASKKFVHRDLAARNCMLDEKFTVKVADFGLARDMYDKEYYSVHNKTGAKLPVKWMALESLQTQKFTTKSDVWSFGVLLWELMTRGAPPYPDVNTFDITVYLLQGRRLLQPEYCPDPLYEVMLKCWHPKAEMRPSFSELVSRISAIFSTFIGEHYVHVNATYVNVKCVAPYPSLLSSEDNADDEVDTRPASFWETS

Row | IC50 [1] | IC50 (MET F1200I) | IC50 (MET D1228N) | SMILES
1 | 4.3 nM | 18.3 nM | 13.1 nM | C[C@@H](CO)Nc1n[nH]c2nccc(Oc3ccc(NC(=O)c4cccc(-c5ccc(F)cc5)[n+]4[O-])cc3F)c12 [Final product 3]
2 | 8.5 nM | 21.4 nM | 30 nM | CC[C@@H](CO)Nc1n[nH]c2nccc(Oc3ccc(NC(=O)c4cccc(-c5ccc(F)cc5)[n+]4[O-])cc3F)c12 [Final product 6]
3 | 4.6 nM | 2.3 nM | 28.4 nM | CC(O)CNc1n[nH]c2nccc(Oc3ccc(NC(=O)c4cccc(-c5ccc(F)cc5)[n+]4[O-])cc3F)c12 (stereo not drawn) [Final product 8]
4 | 1.4 nM | 14.2 nM | 36.2 nM | C[C@H](CO)Nc1n[nH]c2nccc(Oc3ccc(NC(=O)c4cccc(-c5ccc(Cl)cc5)[n+]4[O-])cc3F)c12 [Final product 42]
5 | 5 nM | 14.4 nM | 17.7 nM | C[C@H](CO)Nc1n[nH]c2nccc(Oc3ccc(NC(=O)c4ccc(F)c(-c5ccc(Cl)cc5)[n+]4[O-])cc3F)c12 [Final product 56]
6 | 10.4 nM | 26 nM | 32.8 nM | C[C@H](CO)Nc1n[nH]c2nccc(Oc3ccc(NC(=O)c4ccc(C5CC5)c(-c5ccc(F)cc5)[n+]4[O-])cc3F)c12 [Final product 81]
7 | 17.4 nM | 29.6 nM | 48.1 nM | C[C@H](CO)Nc1n[nH]c2nccc(Oc3ccc(NC(=O)c4ccc(C(F)(F)F)c(-c5ccc(F)cc5)[n+]4[O-])cc3F)c12 [Final product 82]
8 | 3.2 nM | 6.2 nM | 30.4 nM | C[C@H](CO)Nc1n[nH]c2nccc(Oc3ccc(NC(=O)c4ccc(C#N)c(-c5ccc(F)cc5)[n+]4[O-])cc3F)c12 [Final product 83]
9 | 6.4 nM | 29.7 nM | 10.2 nM | CSc1ccc(C(=O)Nc2ccc(Oc3ccnc4[nH]nc(N[C@H](C)CO)c34)c(F)c2)[n+]([O-])c1-c1ccc(F)cc1 [Final product 86]
10 | 5.3 nM | 23 nM | 20.6 nM | C[C@H](CO)Nc1n[nH]c2nccc(Oc3ccc(NC(=O)c4ccc(S(C)(=O)=O)c(-c5ccc(F)cc5)[n+]4[O-])cc3F)c12 [Final product 87]
11 | 5.3 nM | 17.6 nM | 16.4 nM | C[C@H](CO)Nc1n[nH]c2nccc(Oc3ccc(NC(=O)c4ccc(N(C)C)c(-c5ccc(F)cc5)[n+]4[O-])cc3F)c12 [Final product 89]
12 | 12.1 nM | – | 41.2 nM | C[C@H](CO)Nc1n[nH]c2nccc(Oc3ccc(NC(=O)c4cc(C5CC5)cc(-c5ccc(F)cc5)[n+]4[O-])cc3F)c12 [Final product 91]
13 | 2.2 nM | 4.5 nM | 14.1 nM | C[C@H](CO)Nc1n[nH]c2nccc(Oc3ccc(NC(=O)c4ccnc(-c5ccc(F)cc5)[n+]4[O-])cc3F)c12 [Final product 96]

More lines, now with the values behind:

Row | SMILES | IC50 [1] | IC50 (MET F1200I) | IC50 (MET D1228N)
14 | O=C(Nc1ccc(Oc2ccnc3[nH]nc(NCCO)c23)c(F)c1)c1cccc(-c2ccc(F)cc2)[n+]1[O-] [Final product 1] | 2.3 nM | 5.8 nM | 35.4 nM
15 | CCC(O)CNc1n[nH]c2nccc(Oc3ccc(NC(=O)c4cccc(-c5ccc(F)cc5)[n+]4[O-])cc3F)c12 (stereo not drawn) [Final product 9] | 3.8 nM | 20.8 nM | 25.6 nM
16 | O=C(Nc1ccc(Oc2ccnc3[nH]nc(NCC(O)C(F)(F)F)c23)c(F)c1)c1cccc(-c2ccc(F)cc2)[n+]1[O-] (stereo not drawn) [Final product 11] | 6.3 nM | 16.8 nM | 35.7 nM
17 | C[C@@H](Nc1n[nH]c2nccc(Oc3ccc(NC(=O)c4cccc(-c5ccc(F)cc5)[n+]4[O-])cc3F)c12)C(C)(C)O [Final product 16] | 7.5 nM | 25.8 nM | 28.2 nM
18 | O=C(Nc1ccc(Oc2ccnc3[nH]nc(NCC4(CO)CC(O)C4)c23)c(F)c1)c1cccc(-c2ccc(F)cc2)[n+]1[O-] (stereo not drawn) [Final product 20] | 6.9 nM | 20.1 nM | 29.9 nM
19 | O=C(Nc1ccc(Oc2ccnc3[nH]nc(NC4(CO)CC4)c23)c(F)c1)c1cccc(-c2ccc(F)cc2)[n+]1[O-] [Final product 22] | 5.9 nM | 15.5 nM | 25.5 nM
20 | O=C(Nc1ccc(Oc2ccnc3[nH]nc(N[C@H]4C[C@H](O)C4)c23)c(F)c1)c1cccc(-c2ccc(F)cc2)[n+]1[O-] [Final product 23] | 3.3 nM | 12.5 nM | 21 nM
21 | O=C(Nc1ccc(Oc2ccnc3[nH]nc(N4CCC(O)CC4)c23)c(F)c1)c1cccc(-c2ccc(F)cc2)[n+]1[O-] [Final product 26, 2-((3-fluoro-4-((3-(4-hydroxypiperidin-1-yl)-1H-pyrazolo[3,4-b]pyridin-4-yl)oxy)phenyl)carbamoyl)-6-(4-fluorophenyl)pyridine 1-oxide] | 3.8 nM | 9.5 nM | 18.1 nM
22 | CC1(O)CCN(c2n[nH]c3nccc(Oc4ccc(NC(=O)c5cccc(-c6ccc(F)cc6)[n+]5[O-])cc4F)c23)CC1 [Final product 27] | 4.5 nM | 8.6 nM | 13.4 nM
23 | CC1(CO)CCN(c2n[nH]c3nccc(Oc4ccc(NC(=O)c5cccc(-c6ccc(F)cc6)[n+]5[O-])cc4F)c23)CC1 [Final product 29] | 5.2 nM | 20.4 nM | 15.8 nM
24 | O=C(Nc1ccc(Oc2ccnc3[nH]nc(N4CCC[C@H](CO)C4)c23)c(F)c1)c1cccc(-c2ccc(F)cc2)[n+]1[O-] [Final product 33] | 9.7 nM | 21.1 nM | 30.5 nM
25 | O=C(Nc1ccc(Oc2ccnc3[nH]nc(N4CCO[C@@H](CO)C4)c23)c(F)c1)c1cccc(-c2ccc(F)cc2)[n+]1[O-] [Final product 34] | 2.7 nM | 12.3 nM | 18.8 nM
26 | O=C(Nc1ccc(Oc2ccnc3[nH]nc(N4CCO[C@H](CO)C4)c23)c(F)c1)c1cccc(-c2ccc(F)cc2)[n+]1[O-] [Final product 35] | 2 nM | 17.9 nM | 14.7 nM
27 | CC[C@@H](CO)Nc1n[nH]c2nccc(Oc3ccc(NC(=O)c4ccc(Cl)c(-c5ccc(F)cc5)[n+]4[O-])cc3F)c12 [Final product 59] | 12.7 nM | 7.9 nM | 20.3 nM
28 | O=C(Nc1ccc(Oc2ccnc3[nH]nc(N[C@H]4CC[C@H](O)CC4)c23)c(F)c1)c1ccc(Cl)c(-c2ccc(F)cc2)[n+]1[O-] [Final product 64] | – | 22.5 nM | 45.6 nM
29 | C[C@H](CO)Nc1n[nH]c2nccc(Oc3ccc(NC(=O)c4ccc(Cl)c(-c5ccc(Cl)cc5)[n+]4[O-])cc3F)c12 [Final product 65] | 10.8 nM | 42.4 nM | 37.4 nM
30 | C[C@H](CO)Nc1n[nH]c2nccc(Oc3ccc(NC(=O)c4ccc(Cl)c(-c5ccc(F)cc5Cl)[n+]4[O-])cc3F)c12 [Final product 66] | 2.7 nM | 35.5 nM | 11 nM
31 | CC(O)C(CO)CNc1n[nH]c2nccc(Oc3ccc(NC(=O)c4cccc(-c5ccc(F)cc5)[n+]4[O-])cc3Cl)c12 (stereo not drawn) [Final product 102] | 1 nM | 2.1 nM | 6.3 nM
32 | O=C(Nc1ccc(Oc2ccnc3[nH]nc(NC4CC(CO)C4)c23)c(Cl)c1)c1cccc(-c2ccc(F)cc2)[n+]1[O-] (stereo not drawn) [Final product 113] | 3.3 nM | 9.2 nM | 22.5 nM
33 | O=C(Nc1ccc(Oc2ccnc3[nH]nc(N[C@H]4CC[C@@H](O)C4)c23)c(Cl)c1)c1cccc(-c2ccc(F)cc2)[n+]1[O-] [Final product 114] | 5.1 nM | 10.7 nM | 18.7 nM
34 | O=C(Nc1ccc(Oc2ccnc3[nH]nc(N[C@H]4COC[C@@H]4O)c23)c(Cl)c1)c1cccc(-c2ccc(F)cc2)[n+]1[O-] [Final product 115] | 0.8 nM | 6 nM | 10.9 nM
35 | C[C@H](CO)Nc1n[nH]c2nccc(Oc3ccc(NC(=O)c4cccc(-c5ccc(Cl)cc5)[n+]4[O-])cc3Cl)c12 [Final product 116] | 4.6 nM | 10.7 nM | 28.7 nM
36 | COc1ccc2ncnc(Nc3ccc(NC(=O)c4cccc(-c5ccc(F)cc5)[n+]4[O-])cc3F)c2c1O[C@H](C)CO [Final product 181, (R)-2-((3-fluoro-4-((5-((1-hydroxypropan-2-yl)oxy)-6-methoxyquinazolin-4-yl)amino)phenyl)carbamoyl)-6-(4-fluorophenyl)pyridine 1-oxide] | 11.7 nM | – | 29.2 nM
